This is an account of results in US10085449B2, “N-[1-((6-chloropyridin-3-yl)methyl)pyridin-2(1H)-ylidene]-2,2,2- trifluoroacetamide for control of agricultural/horticultural pests” (priority 2010, dated 2018).

Read-outs that look alike come from different tables or passages of the source.

Usually mortality stands for the share of the test organisms that died.

Data set [1] relates to canine heartworm microfilariae. The data set can be described thus: Effects on canine heartworm (motility of microfilariae). On the set-up: key: At least two-thirds of the heartworms died; B: Substantially all the heartworms were affected in some way, or at least one-third died; C: No influence, or less than one-third of the heartworms died. The following applies: 3.13 ppm in RPMI1640 liquid culture medium, 37° C., observed for 48 hours. The procedure:
The activities of the compounds were evaluated based on changes in the motility of microfilariae in canine heartworm. The respective compounds were dissolved in a RPMI1640 liquid culture medium to a concentration of 3.13 ppm, following which about 20 canine heartworm microfilariae were placed in each culture fluid and cultured at 37° C.
Criteria A: At least two-thirds of the heartworms died • B: Substantially all the heartworms were affected in some way, or at least one-third died • C: No influence, or less than one-third of the heartworms died

For another data set, the system named is greenhouse whitefly. The data set is described as follows: whole plant or invertebrate. Format: in vivo. The following applies: 20 ppm foliar application, eggs on cucumber leaf discs, 14 days after spraying. The procedure:
Adult greenhouse whiteflies were released onto cucumber plants grown in pots, and allowed to laid eggs overnight. One day after the start of oviposition, the adults were removed, and the plants and eggs were held in an incubation chamber at 25° C. (16-hour period of light, 8-hour dark period). Three days after the end of oviposition, leaf discs 2.0 cm in diameter were cut from the cucumber plants and, after confirming oviposition thereon, the leaf discs were sprayed with solutions of the inventive compounds at a predetermined concentration prepared to 50% acetone/water (containing 0.05% Tween 20). After spraying, the treated leaf discs were held in an incubation chamber at 25° C. (16-hour period of light, 8-hour dark period). Fourteen days after spraying, the numbers of live and dead insects were counted, and the mortality was calculated from the following formula. This was a two-replication test. Mortality (%)=[(number of oviposited eggs−number of live insects)/number of oviposited eggs]×100

In the next data set the test system is diamondback moth. The data set can be described thus: whole plant or invertebrate. Type of data set: in vivo. The following applies: Plutella xylostella, foliar. The procedure: (§1) Leaf discs 5.0 cm in diameter were cut from cabbage plants grown in pots, and these were sprayed with solutions of the inventive compounds at a predetermined concentration prepared to 50% acetone/water (containing 0.05% Tween 20). The treated leaf discs were air dried, following which second-instar larvae were released onto the discs. The leaf discs and larvae were then held in an incubation chamber at 25° C. (16-hour period of light, 8-hour dark period). Three days after released, the numbers of live and dead insects were counted, and the mortality was calculated from the following formula. This was a two-replication test. Mortality (%)=[number of dead insects/(number of live insects+number of dead insects)]×100

Data set [2] deals with small brown planthopper. The data set is described as follows: whole plant or invertebrate. The following applies: Laodelphax striatellus, foliar. Format: in vivo. How it is done: as §1, with “Rice seedlings” for “Leaf discs 5.0 cm in diameter were cut from cabbage plants”, “pots” for “pots, and these”, “subjected to the foliar application of” for “sprayed with”, “seedlings” for “leaf discs”, “seedlings.” for “discs.”

Data set [3] has as its system small brown planthopper. The data set can be described thus: whole plant or invertebrate. The following applies: Laodelphax striatellus, in Triticum aestivum, 96 h; for mortality at 0.5 mg/seedling / mortality at 2 mg/seedling / mortality at 20 mg/seedling: read-out: Insecticidal effects (mortality), small brown planthopper second-instar larvae. Format: in vivo. The procedure:
Wheat seedling roots 48 hours after sowing were treated with solutions of the inventive compounds at a predetermined concentration prepared to 10% acetone/water. After allowing the roots to absorb the chemical for 72 hours, ten second-instar small brown planthopper larvae were released onto each seedling. The treated seedlings and larvae were then held in an incubation chamber at 25° C. (16-hour period of light, 8-hour dark period). Four days after released, the numbers of live and dead insects were counted, and the mortality was calculated from the following formula. The test was carried out as two replications. Mortality (%)=[number of dead insects/(number of live insects+number of dead insects)]×100

A further data set relates to cotton aphid. The data set can be described thus: whole plant or invertebrate. Format: in vivo. The following applies: Aphis gossypii, foliar. How it is done:
as §1, with “2.0” for “5.0”, “cucumber” for “cabbage”, “first-instar” for “second-instar”

The test system of data set [4] is small brown planthopper. The data set is described as follows: whole plant or invertebrate. Type of data set: in vivo. The following applies: Laodelphax striatellus, 72 h; for pest or weed control at 0.005 mg/pot / pest or weed control at 0.01 mg/pot / pest or weed control at 0.05 mg/pot: rice soil drenching, read-out: Small brown planthopper (rice soil drenching), effect; for pest or weed control at 0.005 mg/pot: 0.005 mg/pot (Table 13); for pest or weed control at 0.01 mg/pot: 0.01 mg/pot (Table 13); for pest or weed control at 0.05 mg/pot: 0.05 mg/pot (Table 13); for mortality at 0.05 mg/seedling / mortality at 0.005 mg/pot / mortality at 0.01 mg/pot / mortality at 0.05 mg/pot: soil; for mortality at 0.005 mg/pot / mortality at 0.01 mg/pot / mortality at 0.05 mg/pot: read-out: Insecticidal effects (mortality), small brown planthopper second-instar larvae. The procedure: (§2) Rice seedlings grown in pots were subjected to soil drenching treatment with solutions of the inventive compounds at a predetermined concentration prepared to 10% acetone/water. Three days following treatment, ten second-instar small brown planthopper larvae were released onto each seedling. The treated seedlings and larvae were then held in an incubation chamber at 25° C. (16-hour period of light, 8-hour dark period). Three days after released, the numbers of live and dead insects were counted, and the mortality was calculated from the following formula. The test was carried out as two replications. Mortality (%)=[number of dead insects/(number of live insects+number of dead insects)]×100

For another data set, the system named is rice leaf bug. The data set is described as follows: whole plant or invertebrate. The following applies: foliar, 72 h. Type of data set: in vivo. The procedure: The treated seedlings were air-dried, then each was placed in a glass cylinder and two second-instar rice leaf bug larvae were released within the same glass cylinder. Following release of the insects, the tube was capped and held in an incubation chamber at 25° C. (16-hour period of light, 8-hour dark period). […] Three days after released, the numbers of live and dead insects were counted, and the mortality was calculated from the following formula. Mortality (%)=[number of dead insects/(number of live insects+number of dead insects)]×100

In the next data set the test system is common cutworm. The data set can be described thus: whole plant or invertebrate. Format: in vivo. The following applies: for Insecticidal effects (mortality), common cutworm third-instar larvae: foliar application. How it is done:
as §1, with “third-instar” for “second-instar”

Another data set deals with western flower thrips. The data set is described as follows: whole plant or invertebrate. Type of data set: in vivo. The following applies: Frankliniella occidentalis, foliar. The procedure: as §1, with “2.8” for “5.0”, “bean” for “cabbage”, “first-instar” for “second-instar”
The subject of data set [5] is small brown planthopper having a low susceptibility to insecticides. The data set can be described thus: Small brown planthopper control test, pests having a low susceptibility to insecticides (soil drenching). Type of data set: in vivo. The following applies: 0.01 mg/seedling soil drenching. The procedure:
as §2, with “days after” for “days following”, “larvae having a low susceptibility to insecticides” for “larvae”, “The” for “The treated”, “and insects” for “and larvae”
The pests used in this test were insects that had been raised indoors for successive generations over a long period of time (susceptible line), and insects that had been raised indoors for successive generations after being collected in 2006 within Kumamoto Prefecture (field-collected line).

Where [6] appears, read: read-out: Insecticidal effects (mortality), diamondback moth second-instar larvae.
Setting [7] is: read-out: Insecticidal effects (mortality), small brown planthopper second-instar larvae.
Where [8] appears, read: read-out: Insecticidal effects (mortality), cotton aphid first-instar larvae.
Where [9] appears, read: read-out: Insecticidal effects (mortality), western flower thrips first-instar larvae.

Turning to `CSC(=S)SCCN(C#N)Cc1ccc(Cl)nc1` [Compound 6, 2-[N-(6-chloro-3-pyridylmethyl)cyanamide] ethyl methylcarbonotrithioate], the “Microfilaricidal effect (motility rating)” value (from here on “Microfilaricidal effect”) in data set [1] is listed as “B”.

`CCSC(=S)SCCN(C#N)Cc1ccc(Cl)nc1` [Compound 7]: the “Microfilaricidal effect” value in data set [1] is given as “B”.

Turning to `CCCSC(=S)SCCN(C#N)Cc1ccc(Cl)nc1` [Compound 8], in data set [1], the “Microfilaricidal effect” value is recorded as “B”.

On to `O=C(N=c1ccccn1Cc1cnc(Cl)s1)C(F)(F)F` [Compound 213], for which the Mortality result with greenhouse whitefly is reported as “at least 80%”.

Turning to `O=C(N=c1ccccn1Cc1cnc(Cl)c(F)c1)C(F)(F)F` [Compound 227, N-[1-((6-chloro-5-fluoropyridin-3-yl)methyl)pyridin-2(1H)-ylidene]-2,2,2-trifluoroacetamide], in the data set on diamondback moth (setting [6]), the mortality at 20 ppm stood at 100%, the mortality at 100 ppm is 100% and the mortality at 500 ppm worked out at 100%. Besides, in the data set with diamondback moth (in Brassica oleracea, 72 h), the mortality at 100 ppm is at least 80% and the mortality at 500 ppm was at least 80%. Also, in the data set with small brown planthopper [2] (setting [7]), the mortality at 5 ppm is 100%. This molecule yielded a mortality at 100 ppm with small brown planthopper [2] (in Oryza sativa, 72 h) of at least 80%. Moreover, in the data set with small brown planthopper [3], the mortality at 20 µg/seedling was at least 80%, the mortality at 0.5 mg/seedling turned out to be 50%, the mortality at 2 mg/seedling was 75% and the mortality at 20 mg/seedling was 100%. For the same molecule, in the data set with cotton aphid (setting [8]), the mortality at 1.25 ppm came to 95%, the mortality at 5 ppm was 100%, the mortality at 20 ppm was found to be 100% and the mortality at 100 ppm is 100%. In addition, the mortality at 500 ppm in the data set on cotton aphid (setting [8]) was determined as 100%. In the data set on cotton aphid (in Cucumis sativus, 72 h), this molecule yielded a mortality at 20 ppm of at least 80%, a mortality at 100 ppm of at least 80% and a mortality at 500 ppm of at least 80%. In addition, in the data set with small brown planthopper [4], the pest or weed control at 0.005 mg/pot turned out to be 75%, the pest or weed control at 0.01 mg/pot was 100%, the pest or weed control at 0.05 mg/pot was found to be 90% and the mortality at 0.05 mg/seedling was at least 80%. Besides, in the data set with small brown planthopper [4], the mortality at 0.005 mg/pot was found to be 75%, the mortality at 0.01 mg/pot is 100% and the mortality at 0.05 mg/pot was found to be 90%. This molecule also returned a mortality at 50 ppm in the data set with rice leaf bug of at least 80%. Besides, the “Insecticidal effects (mortality), common cutworm third-instar larvae” value (“Insecticidal effects (mortality)” below) in the data set on common cutworm (100 ppm) is 56. In the data set with common cutworm (500 ppm), the “Insecticidal effects (mortality)” value worked out at 100. In the data set on common cutworm (foliar, 72 h), this molecule gave a mortality at 500 ppm of at least 80%. This molecule displayed a mortality at 500 ppm in the data set on western flower thrips (72 h) of at least 80%. In the data set with western flower thrips (setting [9]), the mortality at 100 ppm worked out at 65% and the mortality at 500 ppm stood at 90%.

On to `O=C(N=c1ccccn1Cc1ccc(Br)nc1)C(F)(F)F` [Compound 231, N-[1-((6-bromopyridin-3-yl)methyl)pyridin-2(1H)-ylidene]-2,2,2-trifluoroacetamide], for which, in the data set with diamondback moth (setting [6]), the mortality at 20 ppm worked out at 100% and the mortality at 100 ppm came out at 100%. For the same molecule, the mortality at 100 ppm in the data set with diamondback moth (in Brassica oleracea, 72 h) was at least 80%. Further, the mortality at 100 ppm in the data set with small brown planthopper [2] (setting [7]) is 100%. For the same molecule, in the data set with small brown planthopper [3], the mortality at 20 µg/seedling is at least 80%, the mortality at 0.5 mg/seedling is 25%, the mortality at 2 mg/seedling came out at 75% and the mortality at 20 mg/seedling came out at 100%. In addition, in the data set with cotton aphid (setting [8]), the mortality at 1.25 ppm was 74%, the mortality at 5 ppm came to 100% and the mortality at 20 ppm came to 100%. In the data set on cotton aphid (in Cucumis sativus, 72 h), this molecule came in with a mortality at 20 ppm of at least 80%. In addition, in the data set on small brown planthopper [4], the pest or weed control at 0.005 mg/pot is 70%, the pest or weed control at 0.01 mg/pot turned out to be 100%, the pest or weed control at 0.05 mg/pot turned out to be 100% and the mortality at 0.05 mg/seedling was at least 80%. Further, in the data set with small brown planthopper [4], the mortality at 0.005 mg/pot turned out to be 70%, the mortality at 0.01 mg/pot came to 100% and the mortality at 0.05 mg/pot was determined as 100%. Besides, the mortality at 50 ppm in the data set with rice leaf bug is at least 80%. Also, the “Insecticidal effects (mortality)” value in the data set on common cutworm (100 ppm) is reported as 0. Besides, the “Insecticidal effects (mortality)” value with common cutworm (500 ppm) is 0. Also, the mortality at 500 ppm in the data set with western flower thrips (72 h) was at least 80%. Besides, in the data set on western flower thrips (setting [9]), the mortality at 100 ppm came out at 55% and the mortality at 500 ppm was 85%.

As for `N#Cc1nn(-c2c(Cl)cc(C(F)(F)F)cc2Cl)c(N)c1[S+]([O-])C(F)(F)F` (stereo not shown) [fipronil], the Mortality in data set [5] (field-collected line (2006 Kumamoto Prefecture)) came out at 70%; in data set [5] (susceptible line), 100%.
